Results reported in patent US9469650B2, “Melampomagnolide B derivatives” (BOARD OF TRUSTEES OF THE UNIVERSITY OF ARKANSAS, priority 2013, dated 2016).

Assays:
COLO 205 = assay: panel of 60 human tumor cell lines, growth inhibition (Colon Cancer); conditions: Homo sapiens
NCI-H460 = assay: panel of 60 human tumor cell lines, growth inhibition (Non-Small Cell Lung Cancer); conditions: Homo sapiens
HT29 = assay: panel of 60 human tumor cell lines, growth inhibition (Colon Cancer); conditions: for Percent Growth: HT29
NCI-H23 = assay: panel of 60 human tumor cell lines, growth inhibition (Non-Small Cell Lung Cancer); conditions: Homo sapiens
T-47D = assay: panel of 60 human tumor cell lines, growth inhibition (Breast Cancer); conditions: Homo sapiens, T47D
MDA-MB-468 = assay: as above; conditions: Homo sapiens
MDA-MB-435 = assay: panel of 60 human tumor cell lines, growth inhibition (Melanoma); conditions: Homo sapiens
HS 578T = assay: panel of 60 human tumor cell lines, growth inhibition (Breast Cancer); conditions: Homo sapiens, Hs-578T
NCI/ADR-RES = assay: panel of 60 human tumor cell lines, growth inhibition (Ovarian Cancer); conditions: Homo sapiens
SR = assay: panel of 60 human tumor cell lines, growth inhibition (Leukemia); conditions: Homo sapiens
TK-10 = assay: panel of 60 human tumor cell lines, growth inhibition (Renal Cancer); conditions: Homo sapiens
KM12 = assay: panel of 60 human tumor cell lines, growth inhibition (Colon Cancer)
ACHN = assay: panel of 60 human tumor cell lines, growth inhibition (Renal Cancer); conditions: Homo sapiens
SF-539 = assay: panel of 60 human tumor cell lines, growth inhibition (CNS Cancer); conditions: Homo sapiens
CCRF-CEM = assay: panel of 60 human tumor cell lines, growth inhibition (Leukemia); conditions: Homo sapiens
OVCAR-8 = assay: panel of 60 human tumor cell lines, growth inhibition (Ovarian Cancer); conditions: Homo sapiens
MOLT-4 = assay: panel of 60 human tumor cell lines, growth inhibition (Leukemia); conditions: Homo sapiens
SK-MEL-28 = assay: panel of 60 human tumor cell lines, growth inhibition (Melanoma); conditions: Homo sapiens
SK-MEL-5 = assay: as above; conditions: Homo sapiens

For C=C1C(=O)O[C@H]2[C@H]1CC/C(COC(=S)n1ccnc1)=C\CC[C@@]1(C)O[C@@H]21 [JVM 66], the GI50 (COLO 205; COLO 205) was 12.3 µM, the CC50 (COLO 205; COLO 205, read-out: LC50) was 61.9 µM and the IC (TGI) (COLO 205; COLO 205, read-out: TGI) was 27.6 µM. It also gave a GI50 (NCI-H460; NCI-H460) of 15.7 µM, a CC50 (NCI-H460; NCI-H460, read-out: LC50) of over 100 µM and an IC (TGI) (NCI-H460; NCI-H460, read-out: TGI) of 71.4 µM. For the same compound, the “Percent Growth” value (HT29; Log10 Concentration −4.0) was −70%, the “Percent Growth” value (HT29; Log10 Concentration −5.0) was 60% and the “Percent Growth” value (HT29; Log10 Concentration −6.0) was 105%. For the same compound, the “Percent Growth” value (HT29; Log10 Concentration −7.0) was 100%, the “Percent Growth” value (HT29; Log10 Concentration −8.0) was 99% and the GI50 (HT29; Homo sapiens, HT-29) was 12 µM. It also gave a CC50 (HT29; Homo sapiens, HT-29, read-out: LC50) of 69.9 µM, an IC (TGI) (HT29; Homo sapiens, HT-29, read-out: TGI) of 29 µM and a GI50 (NCI-H23; NCI-H23) of 13.5 µM. The CC50 (NCI-H23; NCI-H23, read-out: LC50) was over 100 µM, the IC (TGI) (NCI-H23; NCI-H23, read-out: TGI) was 59.8 µM and the GI50 (T-47D) was 12.9 µM. The CC50 (T-47D; read-out: LC50) was over 100 µM, the IC (TGI) (T-47D; read-out: TGI) was 42.4 µM and the GI50 (MDA-MB-468; MDA-MB-468) was 3.55 µM. The CC50 (MDA-MB-468; MDA-MB-468, read-out: LC50) was over 100 µM, the IC (TGI) (MDA-MB-468; MDA-MB-468, read-out: TGI) was 28.5 µM and the GI50 (MDA-MB-435; MDA-MB-435) was 16.7 µM. It also gave a CC50 (MDA-MB-435; MDA-MB-435, read-out: LC50) of over 100 µM, an IC (TGI) (MDA-MB-435; MDA-MB-435, read-out: TGI) of 43.8 µM and a GI50 (HS 578T) of 26.5 µM. The CC50 (HS 578T; read-out: LC50) was over 100 µM, the IC (TGI) (HS 578T; read-out: TGI) was over 100 µM and the GI50 (NCI/ADR-RES) was 30.1 µM. The CC50 (NCI/ADR-RES; read-out: LC50) was over 100 µM, the IC (TGI) (NCI/ADR-RES; read-out: TGI) was over 100 µM and the GI50 (SR) was 6.17 µM. The CC50 (SR; read-out: LC50) was over 100 µM, the IC (TGI) (SR; read-out: TGI) was 38.5 µM and the GI50 (TK-10; TK-10, TK-10, NCI five dose) was 10.5 µM. For the same compound, the CC50 (TK-10; TK-10, read-out: LC50) was 58.2 µM, the IC (TGI) (TK-10; TK-10, read-out: TGI) was 24.8 µM and the GI50 (KM12; Homo sapiens, KM12) was over 100 µM. The CC50 (KM12; Homo sapiens, KM12, read-out: LC50) was over 100 µM, the “Percent Growth” value (KM12; KM12, Log10 Concentration −4.0) was 60% and the “Percent Growth” value (KM12; KM12, Log10 Concentration −5.0) was 99%. The “Percent Growth” value (KM12; KM12, Log10 Concentration −6.0) was 99%, the “Percent Growth” value (KM12; KM12, Log10 Concentration −7.0) was 102% and the “Percent Growth” value (KM12; KM12, Log10 Concentration −8.0) was 100%. For the same compound, the TGI (KM12; KM12, NCI five dose) was over 1.00E−4, the GI50 (ACHN) was 6.73 µM and the CC50 (ACHN; read-out: LC50) was 50.7 µM. The IC (TGI) (ACHN; read-out: TGI) was 20.4 µM, the GI50 (SF-539; SF-539) was 16.7 µM and the CC50 (SF-539; SF-539, read-out: LC50) was 69.1 µM. For the same compound, the IC (TGI) (SF-539; SF-539, read-out: TGI) was 34 µM, the GI50 (CCRF-CEM; NCI five dose) was 3.38 µM and the CC50 (CCRF-CEM; read-out: LC50) was over 100 µM. For the same compound, the IC (TGI) (CCRF-CEM; read-out: TGI) was 16.6 µM, the GI50 (OVCAR-8; OVCAR-8) was 11.4 µM and the CC50 (OVCAR-8; OVCAR-8, read-out: LC50) was over 100 µM. For the same compound, the IC (TGI) (OVCAR-8; OVCAR-8, read-out: TGI) was over 100 µM, the GI50 (MOLT-4; MOLT-4) was 6.38 µM and the CC50 (MOLT-4; MOLT-4, read-out: LC50) was over 100 µM. For the same compound, the IC (TGI) (MOLT-4; MOLT-4, read-out: TGI) was 34.4 µM, the GI50 (SK-MEL-28; SK-MEL-28) was 15.7 µM and the CC50 (SK-MEL-28; SK-MEL-28, read-out: LC50) was 99.3 µM. For the same compound, the IC (TGI) (SK-MEL-28; SK-MEL-28, read-out: TGI) was 39.5 µM, the GI50 (SK-MEL-5; SK-MEL-5) was 13.3 µM and the CC50 (SK-MEL-5; SK-MEL-5, read-out: LC50) was 55.6 µM. It also gave an IC (TGI) (SK-MEL-5; SK-MEL-5, read-out: TGI) of 27.7 µM.
